Data from article PMC12228513 (Journal of the American Chemical Society, 2025).

Biological target: T1, AlnA (Streptomyces sp. CM020, UniProt B6SEG5)
T1 sequence (B6SEG5 1-306): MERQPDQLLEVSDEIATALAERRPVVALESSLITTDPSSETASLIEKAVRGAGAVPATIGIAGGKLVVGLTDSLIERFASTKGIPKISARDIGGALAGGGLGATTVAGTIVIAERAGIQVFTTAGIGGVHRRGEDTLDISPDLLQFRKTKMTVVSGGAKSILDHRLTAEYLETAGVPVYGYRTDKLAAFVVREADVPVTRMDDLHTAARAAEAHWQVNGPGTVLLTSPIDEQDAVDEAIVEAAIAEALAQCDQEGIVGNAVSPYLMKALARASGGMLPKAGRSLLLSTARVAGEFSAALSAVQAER
Assay: protein mass spectrometry after NaBH4 trapping
Format: binding
Conditions: covalent; Schiff base at Lys159

For `O=P(O)(O)OC[C@H]1OC(O)[C@H](O)[C@@H]1O` (stereo partly shown) [compound 4, ribose 5-phosphate], which “protein mass spectrometry after NaBH4 trapping; tryptic proteolysis” value is on record?
The value was “the covalent modification occurred at the highly conserved Lys159 residue in AlnA”.
